According to paper PMC10882719 (Frontiers in Neuroscience, 2024):
Like-named read-outs stand apart in the source and are kept apart here.

Columns and labels:
5HT5A = molecular target: T1, 5HT5A (Homo sapiens, UniProt P47898); assay: GPCRmax screen, agonist mode, 5HT5A; type: cell-based; details: for % Agonist Activity: HTR5A
T1 construct: β-galactosidase enzyme fragment (enzyme fragment complementation reporter); host or cells: PathHunter cell lines
Experimental: (§1) Studies were performed at Eurofins DiscoverX Corporation (Fremont, CA) using the GPCRmax assay according to the manufacturer’s protocols. […] Activity greater than 30% typically indicates agonist activity and inhibition greater than 50% indicates antagonist activity. This assay uses enzyme fragment complementation with […] as the functional reporter. When a GPCR is activated, […] is recruited and the reporter is detectable. GPCRmax offers a high-throughput screen of 168 GPCRs for agonist or antagonist activity. Briefly, PathHunter cell lines were propagated, seeded into 384-well microplates and incubated at 37°C. […] Microplates were read following signal generation with a PerkinElmer Envision™ instrument for chemiluminescent signal detection. Compound activity was analyzed using CBIS data analysis suite (ChemInnovation, CA) to determine raw values (RLU). For agonist mode assay, percentage activity was calculated using the following formula: % Activity =100% × (mean RLU of test sample - mean RLU of vehicle control) / (mean MAX control ligand - mean RLU of vehicle control). For antagonist mode assay, percentage inhibition was calculated using the following formula: % Inhibition =100% × (1 - (mean RLU of test sample - mean RLU of vehicle control) / (mean RLU of EC80 control - mean RLU of vehicle control)).

5HT2C receptor [1] = molecular target: T2, 5HT2C receptor (Homo sapiens, UniProt P28335); assay: GPCRmax screen, antagonist mode, 5HT2C; type: cell-based; details: for % Antagonist Activity: HTR2C
T2 construct: β-galactosidase enzyme fragment (enzyme fragment complementation reporter); host or cells: PathHunter cell lines
T2 sequence (P28335 33-458): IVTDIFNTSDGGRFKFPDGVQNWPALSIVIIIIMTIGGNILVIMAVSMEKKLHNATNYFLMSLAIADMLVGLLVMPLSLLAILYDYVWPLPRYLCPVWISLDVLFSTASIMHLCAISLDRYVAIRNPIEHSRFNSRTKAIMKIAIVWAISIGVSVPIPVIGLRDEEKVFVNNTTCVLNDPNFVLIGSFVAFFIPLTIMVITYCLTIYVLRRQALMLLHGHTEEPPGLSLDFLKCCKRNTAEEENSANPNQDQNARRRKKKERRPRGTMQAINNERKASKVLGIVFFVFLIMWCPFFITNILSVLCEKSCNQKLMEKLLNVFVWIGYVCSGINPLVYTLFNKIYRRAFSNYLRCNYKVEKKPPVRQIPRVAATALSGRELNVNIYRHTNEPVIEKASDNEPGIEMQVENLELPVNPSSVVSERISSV
Experimental: as §1

5HT2C receptor [2] = molecular target: T2, 5HT2C receptor; assay: GPCRmax screen, agonist mode, 5HT2C; type: cell-based; details: for % Agonist Activity: HTR2C
Experimental: as §1

amygdala gene expression = assay: RNA-seq differential gene expression, amygdala; type: in vivo, rat; details: 10 mg/kg IP, 8 h
168 GPCRs [3] = molecular target: T3, 168 GPCRs (Homo sapiens, UniProt P25103); type: cell-based; details: TACR1
T3 construct: host or cells: PathHunter cell lines
Experimental: as §1

168 GPCRs [4] = molecular target: T4, 168 GPCRs (Homo sapiens, UniProt P25021); type: cell-based
T4 construct: host or cells: PathHunter cell lines
Experimental: as §1

[5] = molecular target: T5, serotonin (5HT) transporter (SERT) (Rattus norvegicus, UniProt P31652); assay: Competitive radioligand binding, [3H]citalopram, rat brain membranes
T5 construct: Rat brains were dissected and tissue was homogenized in cold lysis buffer; from tissue; host or cells: rat brain membrane preparation
Experimental: All studies were performed at Gifford Bioscience, Ltd. (Birmingham, UK) according to standard protocols.
Radioligands used were: [^3H] Citalopram (PerkinElmer NET1039250UC); [^3H] Nisoxetine (PerkinElmer NET1084250UC); [^3H] WIN35428 (PerkinElmer NET1033250UC). Nonspecific compounds used were Citalopram (Tocris Bioscience 1,427); JHW007 (Tocris Bioscience 4,351); Nomifensine (Abcam ab146004). […] Rat brains were dissected and tissue was homogenized in cold lysis buffer, centrifuged at 100xg for 2 min and the supernatant was placed in a fresh tube. Supernatant was centrifuged at 13,000 × g for 10 min at 4°C to re-pellet the cell lysate. The pellet was resuspended in fresh wash buffer (50 mM Tris–HCl; 5 mM MgCl2; 5 mM EDTA) and centrifuged a third time. The pellet was then resuspended in wash buffer containing 10% sucrose as a cryoprotectant, divided into aliquots (0.3 mL) and stored at −80°C. A sample of the homogenate was analyzed for protein content using the Sigma® BCA assay. On the day of the assay, the membrane preparation was thawed and the pellet resuspended in final assay buffer. […] Filters were then dried under a warm air stream, sealed in polyethylene, scintillation cocktail added, and the radioactivity counted in a Wallac® TriLux 1,450 MicroBeta counter. […] Ki was subsequently calculated using the Cheng-Prusoff equation.

5HT2A receptor = molecular target: T6, 5HT2A receptor (Homo sapiens, UniProt P28223); assay: GPCRmax screen, agonist mode, 5HT2A; type: cell-based; details: for % Agonist Activity: HTR2A
T6 construct: β-galactosidase enzyme fragment (enzyme fragment complementation reporter); host or cells: PathHunter cell lines
Experimental: as §1

T4 sequence (P25021 whole entry): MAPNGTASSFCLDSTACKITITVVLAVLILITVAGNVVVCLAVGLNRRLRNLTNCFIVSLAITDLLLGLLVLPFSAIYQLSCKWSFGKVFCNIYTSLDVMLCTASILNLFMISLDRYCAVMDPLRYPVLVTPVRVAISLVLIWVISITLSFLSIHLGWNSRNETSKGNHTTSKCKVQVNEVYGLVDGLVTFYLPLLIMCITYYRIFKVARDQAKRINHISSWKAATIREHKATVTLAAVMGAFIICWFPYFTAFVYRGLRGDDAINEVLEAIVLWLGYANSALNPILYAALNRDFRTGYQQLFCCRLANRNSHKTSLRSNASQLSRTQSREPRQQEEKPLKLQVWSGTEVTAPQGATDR
T3 sequence (P25103 whole entry): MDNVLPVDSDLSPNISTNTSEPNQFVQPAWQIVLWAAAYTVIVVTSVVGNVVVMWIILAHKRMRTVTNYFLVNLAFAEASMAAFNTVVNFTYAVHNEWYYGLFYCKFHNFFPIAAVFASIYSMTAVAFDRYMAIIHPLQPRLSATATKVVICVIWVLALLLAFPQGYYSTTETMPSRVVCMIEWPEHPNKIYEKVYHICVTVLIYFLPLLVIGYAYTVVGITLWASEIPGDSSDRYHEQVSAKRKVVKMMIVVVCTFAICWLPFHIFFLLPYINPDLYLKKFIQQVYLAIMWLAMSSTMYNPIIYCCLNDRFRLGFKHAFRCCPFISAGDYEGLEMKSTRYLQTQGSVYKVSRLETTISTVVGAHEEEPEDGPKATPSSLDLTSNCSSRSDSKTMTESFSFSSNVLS
T1 sequence (P47898 whole entry, the tested form may be a part): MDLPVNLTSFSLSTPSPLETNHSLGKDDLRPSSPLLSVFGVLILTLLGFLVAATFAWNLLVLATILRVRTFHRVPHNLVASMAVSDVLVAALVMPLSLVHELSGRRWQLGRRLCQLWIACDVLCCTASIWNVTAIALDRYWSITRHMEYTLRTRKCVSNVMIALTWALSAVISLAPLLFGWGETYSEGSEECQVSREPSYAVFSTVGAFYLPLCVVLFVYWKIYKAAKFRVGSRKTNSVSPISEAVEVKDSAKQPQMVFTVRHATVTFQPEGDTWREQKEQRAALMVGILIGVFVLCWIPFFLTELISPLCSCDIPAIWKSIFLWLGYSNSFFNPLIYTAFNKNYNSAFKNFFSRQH
T6 sequence (P28223 whole entry, the tested form may be a part): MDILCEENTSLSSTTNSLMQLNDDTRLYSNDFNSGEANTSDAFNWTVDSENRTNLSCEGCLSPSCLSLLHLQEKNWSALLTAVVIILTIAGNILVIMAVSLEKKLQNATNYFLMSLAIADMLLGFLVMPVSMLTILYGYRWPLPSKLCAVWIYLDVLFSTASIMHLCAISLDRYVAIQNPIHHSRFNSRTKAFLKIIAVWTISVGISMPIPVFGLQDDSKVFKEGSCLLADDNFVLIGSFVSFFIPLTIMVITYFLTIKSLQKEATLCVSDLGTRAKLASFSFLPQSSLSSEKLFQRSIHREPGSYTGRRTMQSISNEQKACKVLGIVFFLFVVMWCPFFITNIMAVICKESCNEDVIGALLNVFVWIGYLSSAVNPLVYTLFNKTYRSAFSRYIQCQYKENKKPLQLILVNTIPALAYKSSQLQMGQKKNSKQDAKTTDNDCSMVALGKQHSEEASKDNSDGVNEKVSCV
T5 sequence (P31652 whole entry): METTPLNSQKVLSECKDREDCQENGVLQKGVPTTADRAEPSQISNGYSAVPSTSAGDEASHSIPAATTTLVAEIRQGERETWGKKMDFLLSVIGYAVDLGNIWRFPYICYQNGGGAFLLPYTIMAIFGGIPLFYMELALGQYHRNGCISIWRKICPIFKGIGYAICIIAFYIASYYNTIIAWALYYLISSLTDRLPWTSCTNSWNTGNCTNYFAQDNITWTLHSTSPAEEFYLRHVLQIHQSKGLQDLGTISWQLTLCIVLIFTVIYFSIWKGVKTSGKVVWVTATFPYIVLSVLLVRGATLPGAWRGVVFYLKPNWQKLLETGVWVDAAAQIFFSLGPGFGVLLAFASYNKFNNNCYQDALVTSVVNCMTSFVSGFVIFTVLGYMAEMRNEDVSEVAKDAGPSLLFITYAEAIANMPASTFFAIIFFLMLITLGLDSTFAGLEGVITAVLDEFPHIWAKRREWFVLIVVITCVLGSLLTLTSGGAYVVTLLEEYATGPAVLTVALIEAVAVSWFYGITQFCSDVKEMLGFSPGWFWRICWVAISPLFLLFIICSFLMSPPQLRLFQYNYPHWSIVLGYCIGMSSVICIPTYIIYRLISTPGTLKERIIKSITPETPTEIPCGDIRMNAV

SMILES | % Agonist Activity (5HT5A; 1 uM) [%] | % Agonist Activity (5HT5A; 10 uM) [%] | % Antagonist Activity (5HT2C receptor [1]; 1 uM) [%] | % Antagonist Activity (5HT2C receptor [1]; 10 uM) [%] | % Agonist Activity (5HT2C receptor [2]; 1 uM) [%] | % Agonist Activity (5HT2C receptor [2]; 10 uM) [%] | % Agonist Activity (168 GPCRs [3]; Conc 1 uM) [%] | % Antagonist Activity (168 GPCRs [3]; Conc 1 uM) [%] | % Agonist Activity (168 GPCRs [3]; Conc 10 uM) [%] | % Antagonist Activity (168 GPCRs [3]; Conc 10 uM) [%] | % Agonist Activity (168 GPCRs [4]; HRH2, 1 uM) [%] | % Antagonist Activity (168 GPCRs [4]; HRH2, 1 uM) [%] | % Agonist Activity (168 GPCRs [4]; HRH2, 10 uM) [%] | % Antagonist Activity (168 GPCRs [4]; HRH2, 10 uM) [%] | % Agonist Activity (5HT2A receptor; 1 uM) [%] | % Agonist Activity (5HT2A receptor; 10 uM) [%] | further results
CNC(C)Cc1ccc2c(c1)OCO2 (stereo not shown) [MDMA, 3,4-Methylenedioxy methamphetamine, reference compound] | 7.2 | 0.8 | 22.5 | 52.2 | 15.9 | 28 | -0.2 | 4.4 | -0.1 | -2.1 | 3.3 | 8.4 | -3.7 | 15.3 | 4.9 | 27.5 | % antagonist activity (inhibition), 5HT2C (5HT2C receptor [1]; Figure 2B, threshold 50% inhibition): 52.2%; % agonist activity, 5HT2C (5HT2C receptor [2]; 10 μM, cutoff 30% activity): 28.0%; Additional genes significantly regulated by this drug only (amygdala gene expression; vs vehicle): 1,313; Ki ([5]; read-out: Ki, SERT, competitive radioligand binding, rat brain membranes, Cheng-Prusoff): 2.62 µM; % agonist activity, 5HT2A (5HT2A receptor; 10 μM, cutoff 30% activity): 27.5%
CNC(C)C(=O)c1ccc2c(c1)OCO2 (stereo not shown) [methylone] | 13.6 | 13.9 | 21.1 | 24.2 | 1.4 | 3.7 | -3.9 | 15.2 | -4.4 | 8.9 | -2.5 | 7.1 | -2.8 | 8.1 | -0.1 | 1.4 | % agonist activity, 5HT5A (greatest activity detected) (5HT5A; 1 or 10 μM, threshold 30% activity): 13.9%; Share of genes regulated by this drug that are also regulated by the other drug (amygdala gene expression): 87%; Ki [5]: 4.15 µM
